From patent US20250084041A1, “ANTIMICROBIAL COMPOUNDS AND METHODS” (Curza Global, LLC, priority 2021, published 2025)
Structures can show the parent of a compound that is named as a salt. Where two headings read alike, the source gives them in different places.

Columns and labels:
S. aureus (Sa) = test: Broth microdilution MIC, S. aureus; assay type: cell-based; details: Staphylococcus aureus, read-out: Sa + bicarb 25 (MIC)
Outline: (§1)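 Colonies grown in CAMHB at 35±2° C to 0.5 McFarland (A600nm), then diluted and added at 5×10^4 CFU/well to two-fold compound series in CAMHB, bicarbonate-supplemented CAMHB (25 mM) or serum-supplemented CAMHB (0-50% human serum, heat inactivated). MIC read per modified CLSI M07-A9.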

E. coli S30 extract = test: E. coli S30 extract: inhibition of bacterial protein synthesis (luciferase); assay type: biochemical; details: 37° C. 1 hour
Outline: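 Coupled transcription-translation in E. coli S30 extract, programmed with pBESTluc plasmid, was run with 8-point 2-fold compound dilutions for 1 h at 37 °C. After a cold stop, luciferase luminescence was read and percent inhibition calculated against no-inhibitor controls.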

[1] = target: Rabbit Reticulocyte Lysate; test: Rabbit Reticulocyte Lysate: inhibition of eukaryotic protein synthesis (luciferase); assay type: biochemical; details: 30° C. 90 minutes, read-out: Retic. IC50
Outline: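 Nuclease-treated rabbit reticulocyte lysate translating luciferase control RNA with complete amino acids; compounds in 8-point 2-fold dilutions, 90 min at 30° C. Luminescence read after luciferase reagent; % inhibition versus water (no-inhibitor) control, no-RNA wells as background.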

E. coli (Ec) = test: Broth microdilution MIC, E. coli; assay type: cell-based; details: Escherichia coli, read-out: E. coli + bicarb 25 (MIC)
Outline: as §1

E. faecalis (Ef) = test: Broth microdilution MIC, E. faecalis; assay type: cell-based; details: Enterococcus faecalis, read-out: Ef + bicarb 25 (MIC)
Outline: as §1

P. aeruginosa (Pa) = test: Broth microdilution MIC, P. aeruginosa; assay type: cell-based; details: Pseudomonas aeruginosa, read-out: Pa + bicarb 25 (MIC)
Outline: as §1

A. baumannii (Ab) = test: Broth microdilution MIC, A. baumannii; assay type: cell-based; details: Acinetobacter baumannii, read-out: Ab + bicarb 25 (MIC)
Outline: as §1

CN(CC1CC=C(n2ccc(NC(=O)N3CCN(C(=O)C(C)(C)N)CC3)nc2=O)CC1)[C@H]1CC[C@H](N)CC1 (stereo partly drawn) [Compound 30, trans-4-(2-Amino-2-methylpropanoyl)-N-(1-(4-(((4-aminocyclohexyl)(methyl)amino)methyl)cyclohex-1-en-1-yl)-2-oxo-1,2-dihydropyrimidin-4-yl)piperazine-1-carboxamide hydrochloride salt]
MIC (S. aureus (Sa)): < 8 µg/mL | IC50 (E. coli S30 extract): < 500 nM | IC50 [1]: ≥ 1000 nM | MIC (E. coli (Ec)): < 8 µg/mL | MIC (E. faecalis (Ef)): 8 to 32 µg/mL | MIC (P. aeruginosa (Pa)): > 32 µg/mL | MIC (A. baumannii (Ab)): > 32 µg/mL

CC(C)(N)C(=O)N1CCN(C(=O)Nc2ccn(C3CCC(CN[C@H]4C[C@H](N)C4)CC3)c(=O)n2)CC1 (stereo partly drawn) [Compound 43, trans-4-(2-Amino-2-methylpropanoyl)-N-(1-(4-(((3-aminocyclobutyl)amino)methyl)cyclohexyl)-2-oxo-1,2-dihydropyrimidin-4-yl)piperazine-1-carboxamide hydrochloride salt]
MIC (S. aureus (Sa)): < 8 µg/mL | IC50 (E. coli S30 extract): < 500 nM | IC50 [1]: ≥ 1000 nM | MIC (E. coli (Ec)): < 8 µg/mL | MIC (E. faecalis (Ef)): 8 to 32 µg/mL | MIC (P. aeruginosa (Pa)): > 32 µg/mL | MIC (A. baumannii (Ab)): > 32 µg/mL

CC(C)(N)C(=O)N1CCN(C(=O)Nc2ccn(C3CCC(CN[C@H]4C[C@@H](N)C4)CC3)c(=O)n2)CC1 (stereo partly drawn) [Compound 44, cis-4-(2-Amino-2-methylpropanoyl)-N-(1-(4-(((3-aminocyclobutyl)amino)methyl)cyclohexyl)-2-oxo-1,2-dihydropyrimidin-4-yl)piperazine-1-carboxamide hydrochloride salt]
MIC (S. aureus (Sa)): < 8 µg/mL | IC50 (E. coli S30 extract): < 500 nM | IC50 [1]: ≥ 1000 nM | MIC (E. coli (Ec)): < 8 µg/mL | MIC (E. faecalis (Ef)): 8 to 32 µg/mL | MIC (P. aeruginosa (Pa)): > 32 µg/mL | MIC (A. baumannii (Ab)): > 32 µg/mL

CC(C)(N)C(=O)N1CCN(C(=O)Nc2ccn(C3CCC(CN4CCC5(N)CC5C4)CC3)c(=O)n2)CC1 (centres unmarked) [Compound 45, 4-(2-Amino-2-methylpropanoyl)-N-(1-(4-((6-amino-3-azabicyclo[4.1.0]heptan-3-yl)methyl)cyclohexyl)-2-oxo-1,2-dihydropyrimidin-4-yl)piperazine-1-carboxamide hydrochloride salt]
MIC (S. aureus (Sa)): < 8 µg/mL | IC50 (E. coli S30 extract): < 500 nM | IC50 [1]: ≥ 1000 nM | MIC (E. coli (Ec)): < 8 µg/mL | MIC (E. faecalis (Ef)): < 8 µg/mL | MIC (P. aeruginosa (Pa)): > 32 µg/mL | MIC (A. baumannii (Ab)): > 32 µg/mL

CC(C)(N)C(=O)N1CCN(C(=O)Nc2ccn(C3CCC(CN4CC[C@@H](CN)C4)CC3)c(=O)n2)CC1 (stereo partly drawn) [Compound 46, (S)-4-(2-Amino-2-methylpropanoyl)-N-(1-(4-((3-(aminomethyl)pyrrolidin-1-yl)methyl)cyclohexyl)-2-oxo-1,2-dihydropyrimidin-4-yl)piperazine-1-carboxamide hydrochloride salt]
MIC (S. aureus (Sa)): < 8 µg/mL | IC50 (E. coli S30 extract): < 500 nM | IC50 [1]: ≥ 1000 nM | MIC (E. coli (Ec)): < 8 µg/mL | MIC (E. faecalis (Ef)): > 32 µg/mL | MIC (P. aeruginosa (Pa)): > 32 µg/mL | MIC (A. baumannii (Ab)): > 32 µg/mL

CC(C)(N)C(=O)N1CCN(C(=O)Nc2ccn(C3CCC(CN4CC[C@H](CN)C4)CC3)c(=O)n2)CC1 (stereo partly drawn) [Compound 47, (R)-4-(2-Amino-2-methylpropanoyl)-N-(1-(4-((3-(aminomethyl)pyrrolidin-1-yl)methyl)cyclohexyl)-2-oxo-1,2-dihydropyrimidin-4-yl)piperazine-1-carboxamide Hydrochloride]
MIC (S. aureus (Sa)): < 8 µg/mL | IC50 (E. coli S30 extract): < 500 nM | IC50 [1]: ≥ 1000 nM | MIC (E. coli (Ec)): < 8 µg/mL | MIC (E. faecalis (Ef)): > 32 µg/mL | MIC (P. aeruginosa (Pa)): > 32 µg/mL | MIC (A. baumannii (Ab)): > 32 µg/mL

CCN(C[C@H]1CC[C@H](n2ccc(NC(=O)N3CCN(C(=O)C(C)(C)N)CC3)nc2=O)CC1)C1CC2(CC(N)C2)C1 (stereo partly drawn) [Compound 50, trans-4-(2-Amino-2-methylpropanoyl)-N-(1-(4-(((6-aminospiro[3.3]heptan-2-yl)(ethyl)amino)methyl)cyclohexyl)-2-oxo-1,2-dihydropyrimidin-4-yl)piperazine-1-carboxamide hydrochloride salt]
MIC (S. aureus (Sa)): < 8 µg/mL | IC50 (E. coli S30 extract): < 500 nM | IC50 [1]: ≥ 1000 nM | MIC (E. coli (Ec)): < 8 µg/mL | MIC (E. faecalis (Ef)): < 8 µg/mL | MIC (P. aeruginosa (Pa)): > 32 µg/mL | MIC (A. baumannii (Ab)): 8 to 32 µg/mL

CC(C)(N)C(=O)N1CCN(C(=O)Nc2ccn([C@H]3CC[C@H](CN4CC[C@H](CN)C4)CC3)c(=O)n2)CC1 [Compound 51, (R)-Trans-4-(2-amino-2-methylpropanoyl)-N-(1-(4-((3-(aminomethyl)pyrrolidin-1-yl)methyl)cyclohexyl)-2-oxo-1,2-dihydropyrimidin-4-yl)piperazine-1-carboxamide Hydrochloride]
MIC (S. aureus (Sa)): < 8 µg/mL | IC50 (E. coli S30 extract): < 500 nM | IC50 [1]: ≥ 1000 nM | MIC (E. coli (Ec)): < 8 µg/mL | MIC (E. faecalis (Ef)): 8 to 32 µg/mL | MIC (P. aeruginosa (Pa)): > 32 µg/mL | MIC (A. baumannii (Ab)): > 32 µg/mL

CC(C)(N)C(=O)N1CCN(C(=O)Nc2ccn([C@H]3CC[C@H](CN4CC(N)C4)CC3)c(=O)n2)CC1 [Compound 52, trans-4-(2-Amino-2-methylpropanoyl)-N-(1-(4-((3-aminoazetidin-1-yl)methyl)cyclohexyl)-2-oxo-1,2-dihydropyrimidin-4-yl)piperazine-1-carboxamide hydrochloride salt]
MIC (S. aureus (Sa)): 8 to 32 µg/mL | IC50 (E. coli S30 extract): 500 to 1000 nM | IC50 [1]: ≥ 1000 nM | MIC (E. coli (Ec)): < 8 µg/mL | MIC (E. faecalis (Ef)): > 32 µg/mL | MIC (P. aeruginosa (Pa)): > 32 µg/mL | MIC (A. baumannii (Ab)): > 32 µg/mL

CC(C)(N)C(=O)N1CCN(C(=O)Nc2ccn(C3CCC(CNC4CC5(CC(N)C5)C4)CC3)c(=O)n2)CC1 (centres unmarked) [Compound 53, 4-(2-Amino-2-methylpropanoyl)-N-(1-(4-(((6-aminospiro[3.3]heptan-2-yl)amino)methyl)cyclohexyl)-2-oxo-1,2-dihydropyrimidin-4-yl)piperazine-1-carboxamide hydrochloride salt]
MIC (S. aureus (Sa)): < 8 µg/mL | IC50 (E. coli S30 extract): < 500 nM | IC50 [1]: ≥ 1000 nM | MIC (E. coli (Ec)): 8 to 32 µg/mL | MIC (E. faecalis (Ef)): 8 to 32 µg/mL | MIC (P. aeruginosa (Pa)): > 32 µg/mL | MIC (A. baumannii (Ab)): > 32 µg/mL

CCN(C[C@H]1CC[C@H](n2ccc(N)nc2=O)CC1)[C@H]1CC[C@H](N)CC1 [Compound 54, 4-amino-1-((trans)-4-((((trans)-4-aminocyclohexyl)(ethyl)amino)methyl)cyclohexyl)pyrimidin-2(1H)-one]
MIC (S. aureus (Sa); S. aureus, CAMHB supplemented with sodium bicarbonate 25 mM): > 32 µg/mL | IC50 (E. coli S30 extract): ≥ 1000 nM | IC50 [1]: ≥ 1000 nM | MIC (E. coli (Ec); E. coli, CAMHB supplemented with sodium bicarbonate 25 mM): > 32 µg/mL | MIC (E. faecalis (Ef); E. faecalis, CAMHB supplemented with sodium bicarbonate 25 mM): > 32 µg/mL | MIC (P. aeruginosa (Pa); P. aeruginosa, CAMHB supplemented with sodium bicarbonate 25 mM): > 32 µg/mL | MIC (A. baumannii (Ab); A. baumannii, CAMHB supplemented with sodium bicarbonate 25 mM): > 32 µg/mL
